This is an account of results in patent EP0291164A2, “Growth-suppressing infusion medium, growth-suppressing cell culture medium and processes for the suppression of transformed cell growth” (SPECTRAL BIOANALYSIS LTD., priority 1987, dated 1988).

One test concerns CCL-2. Description: Cell growth by Lowry protein determination after 80 hours in zinc-supplemented culture medium. It is filed as cell-based, human. Conditions: CCL-2, about 1.6 mg/l to about 4.0 mg/l of Zn⁺⁺. An excerpt:
(§1) In the example, malignant transformed human cell lines obtained from the American Type Culture Collection, i.e., a human epithelial cervix carcinoma cell line, HeLa (ATCC No. CCL-2), a human adenocarcinoma carcinoma cell line of the colon, HT-29 (ATCC No. HTB-38) and a human adenocarcinoma carcinoma cell line of the breast, SK-BR-3 (ATCC No. HTB-30) were used. Non-transformed dipolid human fibroblast cells (MRC-5, ATCC No. CCL-171) were employed as a control. The cell lines were obtained from the American Type Culture Collection in a frozen condition. In order to reactivate the cells, the cells were subcultured in McCoy 5A (mod.) medium (Serva Company) containing 15% (v/v) fetal calf serum.
(§2) The reactivated cells were allowed to reach the logarithmic growth phase and then detrypsinized and harvested. The harvested cells were washed twice with McCoy 5A (mod.) medium containing 15% (v/v) fetal calf serum and then resuspended in the same medium at a concentration of 10⁶ cells per ml. The correct cell concentration was determined using a Neubeuer-Turk count chamber in which the viability of the cells was also determined by means of Trypan blue coloring (see: Freshney, I.R., Culture of Animal Cells, Alan Riss Publ. Co., New York, N.Y. (1983)).
(§3) To tubes containing 200,000 HTB-30 cells or 200,000 HTB-38 cells or 200,000 CCL-2 cells was added Cell Culture Medium Nos. 1, 2, 3, 4, 5, 6, 7, 8 or 9 described below and the cells were incubated for 80 hours. In addition, to tubes containing 200,000 human fibroblast cells (MRC-5) were added Cell Culture Medium Nos. 1, 2, 3, 4, 5, 6, 7, 8 or 9 described below and the cells were incubated for 80 hours. All of the cells were incubated at 36.5°C (± 0.5°C), 5% CO₂ and 95% air. Five duplicate tubes were employed for each cell culture medium for each cell.
(§4) After the end of the incubation time, the culture medium was removed and the cells were washed three times with Dulbecco buffer solution (see: Dulbecco, R.U., Vogt, M., J. Exp. Med. 98:167-182 (1954)). Next, the cells were dried and octyl phenol polyethylene glycol ether was added at a concentration of 0.2% (v/v) to each tube to which 20 µl of 1.0 N NaOH had been additionally added per ml.
(§5) After thorough mixing and allowing the samples to stand for 30 minutes at 20-25°C, 200 µl each of the resulting cell extracts were used for protein determinations according to the Lowry method (see: Lowry, O.H. et al., J. Biol. Chem. 193:265 (1951)).
(§6) The Control in the Table below refers to Cell Culture Medium No. 1 at 4°C to which no cells had been added. […] All growth values are mean values from the five duplicate tubes ± the standard deviation.
(§7) The growth value as a percent of the Control was determined according to the following formula: [formula]
(§8) In addition, in the Table, the mean adsorption values are determinative of the concentration of protein in the cells and were evaluated at 660 nm.

The test system of a further test is HTB-30. Described as above. It is filed as cell-based, human. Particulars: HTB-30, about 1.6 mg/l to about 4.0 mg/l of Zn⁺⁺.
Text: as §1, §2, §3, §4, §5, §6, §7, §8

The next test relates to HTB-38. Described as above. Type of test: cell-based, human. Conditions: for decrease in protein yield: compared to Cell Culture Medium No. 1, 4800 min.
Text: as §1, §2, §3, §4, §5, §6, §7, §8

In the next test the test system is Human Fibroblasts. Put plainly: Cell growth by Lowry protein determination after 80 hours in zinc-supplemented culture medium (non-transformed control cells). It is filed as cell-based. Particulars: about 1.6 mg/l to about 4.0 mg/l of Zn⁺⁺.
Text: as §1
The reactivated cells were allowed to reach the logarithmic growth phase and then detrypsinized and harvested. […] The correct cell concentration was determined using a Neubeuer-Turk count chamber in which the viability of the cells was also determined by means of Trypan blue coloring (see: Freshney, I.R., Culture of Animal Cells, Alan Riss Publ. Co., New York, N.Y. (1983)). […]
as §7, §8

Take `[Cl-].[Cl-].[Zn+2]` [bivalent zinc, ZnCl₂]: the “growth rate, expressed as protein concentration” value with CCL-2 is listed as “inhibited”; in the test on HTB-30, “inhibited”; in the test on HTB-38 (HTB-38, about 1.6 mg/l to about 4.0 mg/l of Zn⁺⁺), “inhibited”; in the test on Human Fibroblasts, “not inhibited”. Also, the “decrease in protein yield” value with HTB-38 (HTB-38, 3.5 mg/l of Zn⁺⁺ (maximum growth suppression)) was determined as 41.8%; in the test with HTB-38 (HTB-38, about 2.1 mg/l of Zn⁺⁺), 24.8%.
